Test results taken from publication PMC2120067 (The Journal of Cell Biology, 1994).
One block for each substance: values may come before it.

Experiments:
[1] = test system: angiogenic bovine aortic endothelial (BAE) cells; assay: Quantitation of endothelial cord formation; format: cell-based
[2] = test system: new vessel growth in vivo; conditions: ref Raju et al., 1982; cited from earlier work
[3] = test system: chicken chorioallantoic membrane (CAM); assay: CAM angiogenesis assay; format: in vivo; conditions: methylcellulose disk on chick CAM
[4] = Copper-binding study by electrospray mass spectrometry; conditions: 10 µM KGHK and KGRK mixed with 8 µM Cu2+, electrospray MS
[5] = Magnesium-binding control by electrospray mass spectrometry; conditions: 20 µM KGHK + 50 µM MgSO4 in 20 mM NH4HCO3 (pH 7.5), electrospray MS
[6] = Spectroscopic analysis of copper binding; conditions: saturable; not displaced with 100-fold excesses of Na, K, Ca, or Mg ions; not shown

Substance: bovine serum albumin: control protein [reference compound]
Stimulation of endothelial cord formation ([1]; bovine serum albumin, concentration not given): no stimulatory effect

Substance: N-gly- cyl-L-histidyl-L-lysine-OH [GHK]
Stimulation of endothelial cord formation, peptide pretreated with CuSO4 ([1]; pretreatment of peptide with CuSO4, not shown): significant angiogenic stimulation | Stimulation of new vessel growth in vivo [2]: little effect

Formation of 1:1 complex with magnesium [5]: did not form | Change of absorbance on addition of copper ions [6]: increase in absorbance at 580 nm
Substance: KGHK [N-lysyl-L-glycyl-L-histidyl-L-lysine- OH]
Lowest application eliciting angiogenic activity in the CAM [3]: 50 ng/disk | Direct competition for limiting copper ions [4]: all copper ions were sequestered in a KGHK:Cu complex
